Here are results for 10 molecules from publication PMC10302231, “Enhancing Cell Penetration Efficiency of Cyclic Oligoarginines Using Rigid Scaffolds” (Pharmaceutics, 2023).

Where a SMILES comes first, the peptide text is derived from it. Bridges are numbered along the chain shown (N, C = ends). The star is where a group is joined. 5FAM = O=C1OC2(c3ccc(O)cc3Oc3cc(O)ccc32)c2ccc(C(=O)*)cc21

The test system of series [1] is EBC-1 human lung squamous cancer cells. The series is described as follows: Cellular uptake (internalization) of Cf-labelled peptides by flow cytometry. In kind it is cell-based. Conditions: 90 min; for cellular uptake compared with linear peptide Acyl-Met-(Arg)6-Met-(Gly)4-Lys(Cf) / efficacy (internalization) of tetra- versus hexaarginine bicyclic derivative / internalization compared with octaarginine (in words): EBC-1 cells, 1, 5, 10 µM; for internalization relative to octaarginine (Cf-Arg8): Cf-labelled peptides at 1, 5, 10 µM, trypsin treatment, flow cytometry fluorescence intensity, mean ± SD. How it is done:
The internalization study of fluorophore-labeled peptides was performed on 24-well plates with 10^5 EBC-1 human lung squamous cancer cells (CRL-5889TM) per well. After 24 h incubation at 37 °C, the cells were treated with a serum-free medium as a negative control and with peptides in different concentrations (1, 5, 10 μM). After the incubation, 100 μL trypsin (0.25%) was used for 5–10 min to remove the excess peptides from the membranes and to detach the cells from the plates. By adding 800 µL of HPMI buffer (glucose, NaHCO3, NaCl, HEPES, KCl, MgCl2, CaCl2, Na2HPO4 × 2 H2O) containing 10% fetal bovine serum (FBS), the trypsin activity was stopped, and the cells were transferred to tubes for measurement. The cells were centrifuged at 216× g at 4 °C, and the supernatant was disposed of. The resuspended cells (in 250 μL HPMI) were used to measure their fluorescence intensity by flow cytometer (BDLSR II, BD Bioscience, San Jose, CA, USA). Data were analyzed with FACSDiVa 5.0 software (BD Bioscience, San Jose, CA, USA).
The internalization of peptides was measured by flow cytometry on EBC-1 cells. The carboxyfluorescein-labeled peptides were studied at 1, 5, and 10 μM concentrations. The cells were treated for 90 min at 37 °C.

The test system of series [2] is EBC-1 cells. Put plainly: Cellular uptake after pretreatment with endocytosis inhibitors, flow cytometry. The class given is cell-based, human. To be noted: peptide 5 μM 90 min 37 °C; for effect of CPZ (clathrin-mediated endocytosis inhibitor) on cellular uptake: CPZ 30 μM pretreatment 30 min. The protocol:
In order to study the effect of inhibitors, the peptide conjugates were administered at 5 μM when the cells were pretreated by the inhibitors for 30 min. The cells were then kept at 37 °C for 90 min. Macropinocytosis was inhibited using 5-(N-ethyl-N-isopropyl)amiloride (EIPA), clathrin-mediated endocytosis with chlorpromazine (CPZ), colchicine (Col) to assess the role of microtubules, and methyl-β-cyclodextrin (CyD) for the inhibition of caveolae/lipid-raft-mediated endocytosis.
The CPPs can use several pathways to enter the cell. The dependence of the cellular uptake was measured for each Dabcyl-containing cyclic BBMB peptide using different inhibitors (Figure 7). The 5-(N-ethyl-N-isopropyl)amiloride (EIPA) inhibits macropinocytosis, chlorpromazine (CPZ) inhibits clathrin-mediated endocytosis, and colchicine (COL) was used to inhibit microtubule formation. Finally, methyl-beta-cyclodextrin (CyD) was used to inhibit caveolae-mediated endocytosis.
Figure 7 Effect of endocytosis inhibitors on the cellular uptake of peptides. Before the treatment with the peptide conjugates (5 μM) for 90 min, the EBC-1 cells were pretreated with inhibitors EIPA (50 μM), CPZ (30 μM), CyD (5 mM), and COL (10 mM) for 30 min. Significant difference from the control was measured using Student’s t-test (* p < 0.05). Data represent the mean ± standard deviation (SD).
For orientation: A flow cytometer gives signals particle by particle.

Series [3] is described as follows: Stability measurement in 25% human plasma. In kind it is in vitro ADME. Conditions: 25% human plasma (sodium citrate), 37 °C, aliquots at 0, 1 and 24 h, RP-HPLC; preliminary experiment. How it is done:
The analysis was carried out based on the details described in Yuchen Hu et al.. The linear (Dabcyl-Met-(Arg)6-Met-(Gly)4-Lys(Cf)) and cyclic (Dabcyl-Cys-(Arg)6-Cys-(Gly)4-Lys(Cf) para BBMB) peptides were incubated with 25% human plasma at 37 °C. An aliquot of the peptide; human plasma mixture was taken at time points 0, 1, and 24 h. The samples were analyzed by RP-HPLC.
The molecular weight of peptides and conjugates was determined with ESI-MS using Bruker Amazon SL (Germany). The samples were dissolved in water-acetonitrile solution (50:50) with 0.1% formic acid. The samples were directly injected with a syringe pump.
Parameters: capillary voltage: 4 kV, nebulizer gas: 10 psi, dry gas: 4 L/min, heated capillary temperature: 250 °C.
EBC-1 human lung squamous cancer cells (CRL-5889TM) were used for the in vitro analysis. These cells were a generous gift of Prof. […]
Analytical RP-HPLC was performed on Exformma (Exformma Technology (ASIA) Co., Ltd, Hong Kong, China) HPLC system. […] Linear gradient elution (0 min 0% B; 2 min 0% B; 22 min 90% B) was used with eluent A (0.1% TFA in water) and eluent B (0.1% TFA in acetonitrile-water (80:20, v/v)) at 1mL/min flowrate, the peaks were detected at λ= 220 nm for both analytical and preparative RP-HPLC. […]
Samples were taken in 0, 1 and 24 hour time periods and measured with analytical HPLC. […]

As for `CC(=O)N[C@H]1CSSC[C@@H](C(=O)NCC(=O)NCC(=O)NCC(=O)NCC(=O)N[C@@H](CCCCNC(=O)c2ccc3c(c2)C(=O)OC32c3ccc(O)cc3Oc3cc(O)ccc32)C(N)=O)NC(=O)[C@H](CCCNC(=N)N)NC(=O)[C@H](CCCNC(=N)N)NC(=O)[C@H](CCCNC(=N)N)NC(=O)[C@H](CCCNC(=N)N)NC(=O)[C@H](CCCNC(=N)N)NC(=O)[C@H](CCCNC(=N)N)NC1=O` [Acyl-Cys((Arg)6-Cys)-(Gly)4-Lys(Cf)] (Ac-CRRRRRRCGGGGK(5FAM)-NH2; disulfide 1-8), the “efficiency of cellular uptake compared with octaarginine at 5 µM” value in series [1] (EBC-1 cells, 5 µM, 37 °C, flow cytometry) was “the same”. Besides, the “efficiency of cellular uptake compared with octaarginine at 10 µM” value in series [1] (EBC-1 cells, 10 µM, 37 °C, flow cytometry) is listed as “almost half”. Also, the “cellular uptake compared with linear peptide Acyl-Met-(Arg)6-Met-(Gly)4-Lys(Cf)” value in series [1] (37 °C, flow cytometry) is “better cellular uptake”; in series [1] (37 °C, flow cytometry, listed as Acyl-Cys-(Arg)6-Cys-(Gly)4-Lys(Cf)) it was “did increase the internalization”. For the molecule “Acyl-Cys-(Arg)2-Cys-(Arg)2-Cys-Lys(Cf) TBMB (bicyclic or more) [acylated bicyclic tetraarginine peptide on TBMB scaffold]”, the “efficacy (internalization) of tetra- versus hexaarginine bicyclic derivative” value in series [1] (flow cytometry) is reported as “no difference”. Same read-out and setting: to “Acyl-Cys-(Arg)3-Cys-(Arg)3-Cys-Lys(Cf) TBMB (bicyclic or more) [acylated bicyclic hexaarginine peptide on TBMB scaffold]” belongs “no difference”. In the case of “Dabcyl-(Arg)6-Cys-(Gly)4-Cys-Lys(Cf) orto BBMB (sidechain bridge or staple) [Dabcyl cyclic peptide, orto BBMB, hexaarginine at N-terminus]”, in series [2], the “effect of CPZ (clathrin-mediated endocytosis inhibitor) on cellular uptake” value is “inhibits”. Take “Dabcyl-(Arg)6-Cys-(Gly)4-Cys-Lys(Cf) para BBMB (sidechain bridge or staple) [Dabcyl cyclic peptide, para BBMB, hexaarginine at N-terminus]”: the “effect of CPZ (clathrin-mediated endocytosis inhibitor) on cellular uptake” value in series [2] was “inhibits”. As to “Dabcyl-Cys((Arg)6-Cys)-(Gly)4-Lys(Cf) (disulfide) [Dabcyl cyclic peptide with disulfide bond, Cf-labelled]”, in series [1] (37 °C, flow cytometry), the “internalization compared with octaarginine (in words)” value is given as “still better”. In series [1] (EBC-1 cells, 37 °C), the “internalization relative to octaarginine (Cf-Arg8)” value is recorded as 1.5–2 fold.

In the case of “Dabcyl-Cys-(Arg)4-Cys-(Arg)4-Cys-Lys(Cf) TBMB (bicyclic or more) [Dabcyl bicyclic octaarginine peptide on TBMB scaffold]”, the “internalization compared with octaarginine (in words)” value in series [1] (37 °C, flow cytometry) was “better internalization”. In addition, the “internalization relative to octaarginine (Cf-Arg8)” value in series [1] (EBC-1 cells, 37 °C) came to 3 fold. As for “Dabcyl-Cys-(Arg)6-Cys-(Gly)4-Lys(Cf) orto BBMB (sidechain bridge or staple) [Dabcyl cyclic peptide, orto BBMB, hexaarginine in the cycle]”, the “internalization relative to octaarginine (Cf-Arg8)” value in series [1] (EBC-1 cells, 37 °C) was 5 fold. Besides, the “effect of CPZ (clathrin-mediated endocytosis inhibitor) on cellular uptake” value in series [2] is given as “inhibits”. Take “Dabcyl-Cys-(Arg)6-Cys-(Gly)4-Lys(Cf) para BBMB (sidechain bridge or staple) [Dabcyl cyclic peptide, para BBMB, hexaarginine in the cycle]”: in series [1] (EBC-1 cells, 10 µM, 37 °C), the “toxicity in the uptake experiment” value is reported as “showed toxicity”. The “internalization relative to octaarginine (Cf-Arg8)” value in series [1] (EBC-1 cells, 37 °C) worked out at 5 fold. Also, the “effect of CPZ (clathrin-mediated endocytosis inhibitor) on cellular uptake” value in series [2] is “inhibits”. In addition, the “stability in 25% human plasma” value in series [3] was “stable”. On to “Dabcyl-Cys-(Gly)4-Cys-(Arg)6-Lys(Cf) orto BBMB (sidechain bridge or staple) [Dabcyl cyclic peptide, thioether bonds to orto BBMB, hexaarginine at C-terminus]”, for which the “effect of EIPA (macropinocytosis inhibitor) on cellular uptake” value in series [2] (EIPA 50 μM pretreatment 30 min, Student's t-test p < 0.05) is “did not have an effect”.
